Structures can show the parent of a compound that is named as a salt.

The term IC50 denotes the concentration needed to halve the response being measured. A lower IC50 goes with greater potency.

In the assay the target is protein kinase C. In words: in vitro protein kinase C inhibition: protein kinase-induced incorporation of 32P from [γ-32P]ATP into histone. In kind it is biochemical. Particulars: concentration of test compound which reduces by 50% the protein kinase-induced incorporation of 32P from [γ-32P]ATP into histone. The text has this:
Research Comm. 19 (1979) 1218. The IC50 values in the following Table are that concentration of test compound which reduces by 50% the protein kinase-induced incorporation of ^32P from [γ-^32P]ATP into histone. Table
Consider `CN1C[C@@H]2Cc3c(C4=C(c5cn(C)c6ccccc56)C(=O)NC4=O)c4ccccc4n3C[C@@H]2C1` (relative stereo) [Example 6, cis-3-[2,3,3a,4,11,11a-hexahydro-2-methyl-1H-pyrrolo[3',4':4,5]pyrido-[1,2-a]indol-10-yl]-4-(1-methyl-3-indolyl)-1H-pyrrole-2,5-dione hydrochloride], for which the IC50 was 30 nM.

Take `CN1C[C@H]2Cc3c(C4=C(c5cn(C)c6ccccc56)C(=O)NC4=O)c4ccccc4n3C[C@@H]2C1` (relative stereo) [Example 14, trans-3-(2,3,3a,4,11,11a-hexahydro-2-methyl-1H-pyrrolo[3',4':4,5]pyrido[1,2-a]indol-10-yl)-4-(1-methyl-3-indolyl)-1H-pyrrole-2,5-dione hydrochloride]: the IC50 was 7 nM.

`Cn1cc(C2=C(c3c4n(c5ccccc35)CCC3(CCNC3)C4)C(=O)NC2=O)c2ccccc21` (stereo not drawn) [Example 1, 3-[6,7,8,9-tetrahydrospiro[pyrido[1,2-a]indole-8,3'-pyrrolidin-10-yl]-4-(1-methyl-3-indolyl)-pyrrole-2,5-dione trifluoroacetate] showed an IC50 of 40 nM.

Source of the values: patent publication EP0470490B1, “Substituted pyrroles” (F. HOFFMANN-LA ROCHE AG, priority 1990, dated 1992).
